Read-outs that look alike come from different tables or passages of the source. *1 amine or outer side, *2 acyl side, *3 side chain or, on linkers, in order; H or OH if unused. Where a SMILES comes first, the peptide text is derived from it. Side-chain parts run from the residue outwards. [ ]: non-standard residue; d: D form. The star is where a group is joined. Isobutyryl(2-(3-CN-5-F-Ph)) = CC(C)(C(=O)*)c1cc(F)cc(C#N)c1; C20 diacid = O=C(O)CCCCCCCCCCCCCCCCCCC(=O)*; X52 = CC(C)(C(=O)*)c1cc(F)cc(OC(F)(F)F)c1; Phenylacetyl(3-Cl) = O=C(Cc1cccc(Cl)c1)*; γGlu = O=C(O)[C@H](CCC(=O)[*:2])N[*:1]; X84 = O=C([C@H]1CCCN([*:1])C1)[*:2]; X78 = CC(C)(C(=O)*)C1CCCCC1; AEEA = NCCOCCOCC(=O)O; Aib = CC(C)(N)C(=O)O; Piv = CC(C)(C)C(=O)*; βAla = NCCC(=O)O
How the values were obtained:
Assay type in all cases: cell-based
[1] = molecular target: T1, GIP receptor (Homo sapiens, UniProt P48546); experiment: HitHunter cAMP assay, GIP receptor; settings: for Emax: read-out: Emax GIP-1R
T1 sequence (P48546 22-466): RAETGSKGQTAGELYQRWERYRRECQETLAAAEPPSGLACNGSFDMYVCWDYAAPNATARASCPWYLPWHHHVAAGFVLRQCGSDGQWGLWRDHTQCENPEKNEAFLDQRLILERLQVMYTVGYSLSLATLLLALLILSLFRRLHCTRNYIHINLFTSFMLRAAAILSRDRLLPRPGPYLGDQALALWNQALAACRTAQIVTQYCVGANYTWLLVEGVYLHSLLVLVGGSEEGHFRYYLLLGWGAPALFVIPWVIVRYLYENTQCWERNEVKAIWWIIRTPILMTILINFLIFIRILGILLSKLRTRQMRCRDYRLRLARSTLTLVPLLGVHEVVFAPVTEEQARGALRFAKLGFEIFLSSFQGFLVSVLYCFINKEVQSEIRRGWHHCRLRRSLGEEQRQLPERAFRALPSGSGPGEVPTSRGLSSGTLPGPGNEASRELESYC

[2] = molecular target: T2, GLP-1 receptor (Homo sapiens, UniProt P43220); experiment: PathHunter β-arrestin assay, GLP-1 receptor; parameters: host or cells: PathHunter CHO-K1 GLP1R β-Arrestin Cell Line
T2 sequence (P43220 24-463): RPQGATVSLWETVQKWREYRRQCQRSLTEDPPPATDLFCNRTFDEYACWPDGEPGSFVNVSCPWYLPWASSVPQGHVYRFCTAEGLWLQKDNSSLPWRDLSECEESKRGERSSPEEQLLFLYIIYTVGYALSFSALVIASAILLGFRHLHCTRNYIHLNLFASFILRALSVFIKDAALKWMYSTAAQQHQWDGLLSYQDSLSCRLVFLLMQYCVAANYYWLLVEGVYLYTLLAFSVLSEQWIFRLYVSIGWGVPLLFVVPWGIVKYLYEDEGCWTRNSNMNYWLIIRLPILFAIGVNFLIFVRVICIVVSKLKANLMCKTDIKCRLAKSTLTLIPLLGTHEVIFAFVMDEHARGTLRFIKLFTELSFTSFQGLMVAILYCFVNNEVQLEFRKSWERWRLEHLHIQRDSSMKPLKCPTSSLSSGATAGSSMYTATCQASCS

[3] = molecular target: T2, GLP-1 receptor; experiment: HitHunter cAMP assay, GLP-1 receptor; settings: for Emax: read-out: Emax GLP-1R
[4] = molecular target: T1, GIP receptor; experiment: PathHunter β-arrestin assay, GIP receptor; parameters: host or cells: PathHunter CHO-K1 GIPR β-Arrestin Cell Line
[5] = CHO cells stably expressing GIP receptor, cAMP accumulation, 30 min, read-out: EC50 GIP-1R
[6] = CHO cells, cAMP, normalized to maximum signal from GIP (high) and DMSO (low)
[7] = β-arrestin-2 recruitment, PathHunter CHO-K1 GLP1R β-Arrestin Cell Line, 90 min at 37° C., normalized to GLP-1, read-out: GLP-1R β Arrestin EC50
[8] = CHO cells stably expressing human GLP-1 receptor, cAMP accumulation, 30 min, read-out: EC50 GLP-1R
[9] = CHO cells, cAMP, normalized to maximum signal from GLP-1 (high) and DMSO (low)
[10] = β-arrestin-2 recruitment, PathHunter CHO-K1 GIPR β-Arrestin Cell Line, 90 min at 37° C., normalized to GIP, read-out: GIPR β Arrestin EC50

Row | SMILES | EC50 [1, 5] | Emax [1, 6] | EC50 [2, 7] | EC50 [3, 8] | Emax [3, 9] | EC50 [4, 10] | EC50 [1] | Emax ([1]; CHO) | EC50 [2] | EC50 [3] | Emax ([3]; CHO) | EC50 [4]
1 | CC[C@H](C)[C@H](NC(=O)[C@H](CC(C)C)NC(=O)[C@H](Cc1c[nH]c2ccccc12)NC(=O)[C@H](CCC(N)=O)NC(=O)[C@@H](NC(=O)[C@H](Cc1ccccc1)NC(=O)[C@H](C)NC(=O)[C@H](CCCCNC(=O)COCCOCCNC(=O)COCCOCCNC(=O)CC[C@H](NC(=O)CCCCCCCCCCCCCCCCCCC(=O)O)C(=O)O)NC(=O)[C@H](CCC(N)=O)NC(=O)[C@H](C)NC(=O)[C@@H](NC(=O)[C@H](CCCCN)NC(=O)[C@H](CC(=O)O)NC(=O)[C@H](CC(C)C)NC(=O)C(C)(C)NC(=O)[C@@H](NC(=O)[C@H](CO)NC(=O)[C@H](Cc1ccc(O)cc1)NC(=O)[C@H](CC(=O)O)NC(=O)[C@H](CO)NC(=O)[C@@H](NC(=O)[C@H](Cc1ccccc1)NC(=O)[C@@H](NC(=O)CNC(=O)[C@H](CCC(=O)O)NC(=O)CCNC(=O)C(C)(C)c1cc(F)cc(OC(F)(F)F)c1)[C@@H](C)O)[C@@H](C)O)[C@@H](C)CC)[C@@H](C)CC)C(C)C)C(=O)N[C@@H](C)C(=O)NCC(=O)NCC(=O)N1CCC[C@H]1C(=O)N[C@@H](CO)C(=O)N[C@@H](CO)C(=O)NCC(=O)N[C@@H](C)C(=O)N1CCC[C@H]1C(=O)N1CCC[C@H]1C(=O)N1CCC[C@H]1C(=O)N[C@@H](CO)C(N)=O [Compound 112] ({X52-βAla}-EGTFTSDYSI[Aib]LDKIAQK([AEEA-AEEA-γGlu-C20 diacid])AFVQWLIAGGPSSGAPPPS-NH2) | 100 to 1000 nM | 99% | > 1000 nM | 1 to 10 nM | 115% | > 1000 nM |  |  |  |  |  | 
2 | CC[C@H](C)[C@H](NC(=O)[C@H](CC(C)C)NC(=O)[C@H](Cc1c[nH]c2ccccc12)NC(=O)[C@H](CCC(N)=O)NC(=O)[C@@H](NC(=O)[C@H](Cc1ccccc1)NC(=O)[C@H](C)NC(=O)[C@H](CCCCNC(=O)COCCOCCNC(=O)COCCOCCNC(=O)CC[C@H](NC(=O)CCCCCCCCCCCCCCCCCCC(=O)O)C(=O)O)NC(=O)[C@H](CCC(N)=O)NC(=O)[C@H](C)NC(=O)[C@@H](NC(=O)[C@H](CCCCN)NC(=O)[C@H](CC(=O)O)NC(=O)[C@H](CC(C)C)NC(=O)C(C)(C)NC(=O)[C@@H](NC(=O)[C@H](CO)NC(=O)[C@H](Cc1ccc(O)cc1)NC(=O)[C@H](CC(=O)O)NC(=O)[C@H](CO)NC(=O)[C@@H](NC(=O)[C@H](Cc1ccccc1)NC(=O)[C@@H](NC(=O)CNC(=O)[C@H](CCC(=O)O)NC(=O)CCNC(=O)CNC(=O)Cc1cccc(Cl)c1)[C@@H](C)O)[C@@H](C)O)[C@@H](C)CC)[C@@H](C)CC)C(C)C)C(=O)N[C@@H](C)C(=O)NCC(=O)NCC(=O)N1CCC[C@H]1C(=O)N[C@@H](CO)C(=O)N[C@@H](CO)C(=O)NCC(=O)N[C@@H](C)C(=O)N1CCC[C@H]1C(=O)N1CCC[C@H]1C(=O)N1CCC[C@H]1C(=O)N[C@@H](CO)C(N)=O [Compound 230] ({Phenylacetyl(3-Cl)}-G[βAla]EGTFTSDYSI[Aib]LDKIAQK([AEEA-AEEA-γGlu-C20 diacid])AFVQWLIAGGPSSGAPPPS-NH2) |  |  |  |  |  |  | 10 to 100 nM | 96% | > 1000 nM | 1 to 10 nM | 99% | > 1000 nM
3 | CC[C@H](C)[C@H](NC(=O)[C@H](CC(C)C)NC(=O)[C@H](Cc1c[nH]c2ccccc12)NC(=O)[C@H](CCC(N)=O)NC(=O)[C@@H](NC(=O)[C@H](Cc1ccccc1)NC(=O)[C@H](C)NC(=O)[C@H](CCCCNC(=O)COCCOCCNC(=O)COCCOCCNC(=O)CC[C@H](NC(=O)CCCCCCCCCCCCCCCCCCC(=O)O)C(=O)O)NC(=O)[C@H](CCC(N)=O)NC(=O)[C@H](C)NC(=O)[C@@H](NC(=O)[C@H](CCCCN)NC(=O)[C@H](CC(=O)O)NC(=O)[C@H](CC(C)C)NC(=O)C(C)(C)NC(=O)[C@@H](NC(=O)[C@H](CO)NC(=O)[C@H](Cc1ccc(O)cc1)NC(=O)[C@H](CC(=O)O)NC(=O)[C@H](CO)NC(=O)[C@@H](NC(=O)[C@H](Cc1ccccc1)NC(=O)[C@@H](NC(=O)CNC(=O)[C@H](CCC(=O)O)NC(=O)[C@H]1CCCN(C(=O)C(C)(C)c2cc(F)cc(C#N)c2)C1)[C@@H](C)O)[C@@H](C)O)[C@@H](C)CC)[C@@H](C)CC)C(C)C)C(=O)N[C@@H](C)C(=O)NCC(=O)NCC(=O)N1CCC[C@H]1C(=O)N[C@@H](CO)C(=O)N[C@@H](CO)C(=O)NCC(=O)N[C@@H](C)C(=O)N1CCC[C@H]1C(=O)N1CCC[C@H]1C(=O)N1CCC[C@H]1C(=O)N[C@@H](CO)C(N)=O [Compound 212] ({Isobutyryl(2-(3-CN-5-F-Ph))}-[X84]EGTFTSDYSI[Aib]LDKIAQK([AEEA-AEEA-γGlu-C20 diacid])AFVQWLIAGGPSSGAPPPS-NH2) | > 1000 nM |  | > 1000 nM | 10 to 100 nM | 89% | > 1000 nM |  |  |  |  |  | 
4 | CC[C@H](C)[C@H](NC(=O)[C@H](CC(C)C)NC(=O)[C@H](Cc1c[nH]c2ccccc12)NC(=O)[C@H](CCC(N)=O)NC(=O)[C@@H](NC(=O)[C@H](Cc1ccccc1)NC(=O)[C@H](C)NC(=O)[C@H](CCCCNC(=O)COCCOCCNC(=O)COCCOCCNC(=O)CC[C@H](NC(=O)CCCCCCCCCCCCCCCCCCC(=O)O)C(=O)O)NC(=O)[C@H](CCC(N)=O)NC(=O)[C@H](C)NC(=O)[C@@H](NC(=O)[C@H](CCCCN)NC(=O)[C@H](CC(=O)O)NC(=O)[C@H](CC(C)C)NC(=O)C(C)(C)NC(=O)[C@@H](NC(=O)[C@H](CO)NC(=O)[C@H](Cc1ccc(O)cc1)NC(=O)[C@H](CC(=O)O)NC(=O)[C@H](CO)NC(=O)[C@@H](NC(=O)[C@H](Cc1ccccc1)NC(=O)[C@@H](NC(=O)CNC(=O)[C@H](CCC(=O)O)NC(=O)CCNC(=O)C(C)(C)C1CCCCC1)[C@@H](C)O)[C@@H](C)O)[C@@H](C)CC)[C@@H](C)CC)C(C)C)C(=O)N[C@@H](C)C(=O)NCC(=O)NCC(=O)N1CCC[C@H]1C(=O)N[C@@H](CO)C(=O)N[C@@H](CO)C(=O)NCC(=O)N[C@@H](C)C(=O)N1CCC[C@H]1C(=O)N1CCC[C@H]1C(=O)N1CCC[C@H]1C(=O)N[C@@H](CO)C(N)=O [Compound 205] ({X78-βAla}-EGTFTSDYSI[Aib]LDKIAQK([AEEA-AEEA-γGlu-C20 diacid])AFVQWLIAGGPSSGAPPPS-NH2) | 10 to 100 nM | 99% | > 1000 nM | 1 to 10 nM | 99% | > 1000 nM |  |  |  |  |  | 
5 | CC[C@H](C)[C@H](NC(=O)[C@H](CC(C)C)NC(=O)[C@H](Cc1c[nH]c2ccccc12)NC(=O)[C@H](CCC(N)=O)NC(=O)[C@@H](NC(=O)[C@H](Cc1ccccc1)NC(=O)[C@H](C)NC(=O)[C@H](CCCCNC(=O)COCCOCCNC(=O)COCCOCCNC(=O)CC[C@H](NC(=O)CCCCCCCCCCCCCCCCCCC(=O)O)C(=O)O)NC(=O)[C@H](CCC(N)=O)NC(=O)[C@H](C)NC(=O)[C@@H](NC(=O)[C@H](CCCCN)NC(=O)[C@H](CC(=O)O)NC(=O)[C@H](CC(C)C)NC(=O)C(C)(C)NC(=O)[C@@H](NC(=O)[C@H](CO)NC(=O)[C@H](Cc1ccc(O)cc1)NC(=O)[C@H](CC(=O)O)NC(=O)[C@H](CO)NC(=O)[C@@H](NC(=O)[C@H](Cc1ccccc1)NC(=O)[C@@H](NC(=O)CNC(=O)[C@H](CCC(=O)O)NC(=O)CCNC(=O)C(C)(C)C)[C@@H](C)O)[C@@H](C)O)[C@@H](C)CC)[C@@H](C)CC)C(C)C)C(=O)N[C@@H](C)C(=O)NCC(=O)NCC(=O)N1CCC[C@H]1C(=O)N[C@@H](CO)C(=O)N[C@@H](CO)C(=O)NCC(=O)N[C@@H](C)C(=O)N1CCC[C@H]1C(=O)N1CCC[C@H]1C(=O)N1CCC[C@H]1C(=O)N[C@@H](CO)C(N)=O [Compound 197] ({Piv-βAla}-EGTFTSDYSI[Aib]LDKIAQK([AEEA-AEEA-γGlu-C20 diacid])AFVQWLIAGGPSSGAPPPS-NH2) | 10 to 100 nM | 97% | > 1000 nM | 0.1 to 1 nM | 96% | > 1000 nM |  |  |  |  |  | 

From US12281149B2, “Modulators of G-protein coupled receptors” (priority 2021, dated 2025)
